Measured values as given in the supplement of paper PMC10307832.

Tests used:
Test in all cases: relative viability (nuclei count vs DMSO), 5 days (fraction); higher = more cells survive
[1] = compound: CC(C)=CC[C@@H](O)C1=CC(=O)c2c(O)ccc(O)c2C1=O [Shikonin] + Nc1ncn([C@H]2C[C@H](O)[C@@H](CO)O2)c(=O)n1 [Decitabine] (partner 2 µM)
In short: (§1)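 Relative viability is defined as nuclei in treated wells over nuclei in vehicle wells. Duplicate plates were run and medians reported. Lung cancer cell lines in 1536-well plates were dosed by pin tool one day after seeding, with one drug or with a fixed anchor-drug dose plus five library-drug doses (not always all listed) in √10 steps, and nuclei were counted after 5 days.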

[2] = compound: CC(C)=CC[C@@H](O)C1=CC(=O)c2c(O)ccc(O)c2C1=O [Shikonin] + CC(C)C[C@H](NC(=O)[C@H](Cc1ccccc1)NC(=O)c1cnccn1)B(O)O [Bortezomib] (partner 0.002 µM)
In short: as §1

[3] = compound: CC(C)N(CCCNC(=O)Nc1ccc(C(C)(C)C)cc1)C[C@H]1O[C@@H](n2ccc3c(N)ncnc32)[C@H](O)[C@@H]1O + CCNC(=O)c1noc(-c2cc(C(C)C)c(O)cc2O)c1-c1ccc(CN2CCOCC2)cc1 [Luminespib] (partner 0.01 µM)
In short: as §1

[4] = compound: CC(C)N(CCCNC(=O)Nc1ccc(C(C)(C)C)cc1)C[C@H]1O[C@@H](n2ccc3c(N)ncnc32)[C@H](O)[C@@H]1O + Cc1nc(Nc2ncc(C(=O)Nc3c(C)cccc3Cl)s2)cc(N2CCN(CCO)CC2)n1 [Dasatinib] (partner 0.075 µM)
In short: as §1

Cell Line: HCC-44
- relative viability ([1]; first compound 0.01 µM): 0.953
- relative viability ([1]; first compound 0.1 µM): 0.928
- relative viability ([1]; first compound 0.3162 µM): 1.1
- relative viability ([1]; first compound 1 µM): 0.979
- relative viability ([2]; first compound 0.01 µM): 0.946
- relative viability ([2]; first compound 0.1 µM): 0.99
- relative viability ([2]; first compound 0.3162 µM): 0.864
- relative viability ([2]; first compound 1 µM): 0.933
- relative viability ([3]; first compound 0.08 µM): 0.972
- relative viability ([3]; first compound 0.253 µM): 1.06
- relative viability ([3]; first compound 0.8 µM): 1.1
- relative viability ([3]; first compound 2.53 µM): 1.15
- relative viability ([3]; first compound 8 µM): 1.03

Cell Line: HCC-78
- relative viability ([1]; first compound 0.01 µM): 0.71
- relative viability ([1]; first compound 0.1 µM): 0.638
- relative viability ([1]; first compound 0.3162 µM): 0.721
- relative viability ([1]; first compound 1 µM): 0.732
- relative viability ([2]; first compound 0.01 µM): 0.572
- relative viability ([2]; first compound 0.1 µM): 0.474
- relative viability ([2]; first compound 0.3162 µM): 0.607
- relative viability ([2]; first compound 1 µM): 0.552
- relative viability ([4]; first compound 0.08 µM): 0.485
- relative viability ([4]; first compound 0.253 µM): 0.311
- relative viability ([4]; first compound 0.8 µM): 0.466
- relative viability ([4]; first compound 2.53 µM): 0.308
- relative viability ([4]; first compound 8 µM): 0.32

Cell Line: HCC-366
- relative viability ([1]; first compound 0.01 µM): 0.34
- relative viability ([1]; first compound 0.1 µM): 0.381
- relative viability ([1]; first compound 0.3162 µM): 0.37
- relative viability ([1]; first compound 1 µM): 0.367
- relative viability ([2]; first compound 0.01 µM): 1.32
- relative viability ([2]; first compound 0.1 µM): 1.59
- relative viability ([2]; first compound 0.3162 µM): 1.12
- relative viability ([2]; first compound 1 µM): 1.08
- relative viability ([4]; first compound 0.08 µM): 0.608
- relative viability ([4]; first compound 0.253 µM): 0.647
- relative viability ([4]; first compound 0.8 µM): 0.442
- relative viability ([4]; first compound 2.53 µM): 0.587
- relative viability ([4]; first compound 8 µM): 0.536

Cell Line: HCC-827
- relative viability ([1]; first compound 0.01 µM): 0.326
- relative viability ([1]; first compound 0.1 µM): 0.29
- relative viability ([1]; first compound 0.3162 µM): 0.33
- relative viability ([1]; first compound 1 µM): 0.329
- relative viability ([2]; first compound 0.01 µM): 1.11
- relative viability ([2]; first compound 0.1 µM): 1.06
- relative viability ([2]; first compound 0.3162 µM): 1.03
- relative viability ([2]; first compound 1 µM): 1.1
- relative viability ([3]; first compound 0.08 µM): 0.625
- relative viability ([3]; first compound 0.253 µM): 0.573
- relative viability ([3]; first compound 2.53 µM): 0.599
- relative viability ([3]; first compound 8 µM): 0.688
- relative viability ([4]; first compound 0.08 µM): 0.286
- relative viability ([4]; first compound 0.253 µM): 0.44
- relative viability ([4]; first compound 0.8 µM): 0.355
- relative viability ([4]; first compound 2.53 µM): 0.311
- relative viability ([4]; first compound 8 µM): 0.423

Cell Line: HOP-62
- relative viability ([1]; first compound 0.01 µM): 0.24
- relative viability ([1]; first compound 0.1 µM): 0.222
- relative viability ([1]; first compound 0.3162 µM): 0.205
- relative viability ([1]; first compound 1 µM): 0.212
- relative viability ([2]; first compound 0.01 µM): 0.958
- relative viability ([2]; first compound 0.1 µM): 0.715
- relative viability ([2]; first compound 0.3162 µM): 0.875
- relative viability ([2]; first compound 1 µM): 0.902
- relative viability ([3]; first compound 0.08 µM): 0.94
- relative viability ([3]; first compound 0.253 µM): 0.928
- relative viability ([3]; first compound 0.8 µM): 0.817
- relative viability ([3]; first compound 2.53 µM): 0.863
- relative viability ([3]; first compound 8 µM): 0.9
- relative viability ([4]; first compound 0.08 µM): 0.629
- relative viability ([4]; first compound 0.253 µM): 0.615
- relative viability ([4]; first compound 0.8 µM): 0.54
- relative viability ([4]; first compound 2.53 µM): 0.577
- relative viability ([4]; first compound 8 µM): 0.604

Cell Line: IA-LM
- relative viability ([2]; first compound 0.01 µM): 0.715
- relative viability ([2]; first compound 0.1 µM): 0.769
- relative viability ([2]; first compound 0.3162 µM): 1.04
- relative viability ([2]; first compound 1 µM): 0.876

Cell Line: LK-2
- relative viability ([1]; first compound 0.01 µM): 0.297
- relative viability ([1]; first compound 0.1 µM): 0.272
- relative viability ([1]; first compound 0.3162 µM): 0.289
- relative viability ([1]; first compound 1 µM): 0.352
- relative viability ([3]; first compound 0.08 µM): 0.185
- relative viability ([3]; first compound 0.253 µM): 0.193
- relative viability ([3]; first compound 0.8 µM): 0.191
- relative viability ([3]; first compound 2.53 µM): 0.169
- relative viability ([3]; first compound 8 µM): 0.214
- relative viability ([4]; first compound 0.08 µM): 0.447
- relative viability ([4]; first compound 0.253 µM): 0.294
- relative viability ([4]; first compound 0.8 µM): 0.267
- relative viability ([4]; first compound 2.53 µM): 0.368
- relative viability ([4]; first compound 8 µM): 0.302

Cell Line: NCI-H358
- relative viability ([1]; first compound 0.01 µM): 0.178
- relative viability ([1]; first compound 0.1 µM): 0.23
- relative viability ([1]; first compound 0.3162 µM): 0.218
- relative viability ([1]; first compound 1 µM): 0.19
- relative viability ([3]; first compound 0.08 µM): 0.441
- relative viability ([3]; first compound 0.253 µM): 0.235
- relative viability ([3]; first compound 0.8 µM): 0.384
- relative viability ([3]; first compound 2.53 µM): 0.0174
- relative viability ([3]; first compound 8 µM): 0.307
- relative viability ([4]; first compound 0.08 µM): 0.172
- relative viability ([4]; first compound 0.253 µM): 0.158
- relative viability ([4]; first compound 0.8 µM): 0.171
- relative viability ([4]; first compound 2.53 µM): 0.174
- relative viability ([4]; first compound 8 µM): 0.165

Cell Line: NCI-H522
- relative viability ([1]; first compound 0.01 µM): 0.62
- relative viability ([1]; first compound 0.1 µM): 0.763
- relative viability ([1]; first compound 0.3162 µM): 0.644
- relative viability ([1]; first compound 1 µM): 0.553
- relative viability ([3]; first compound 0.08 µM): 0.949
- relative viability ([3]; first compound 0.253 µM): 1.2
- relative viability ([3]; first compound 0.8 µM): 1.05
- relative viability ([3]; first compound 2.53 µM): 1.1
- relative viability ([3]; first compound 8 µM): 1.22
- relative viability ([4]; first compound 0.08 µM): 0.888
- relative viability ([4]; first compound 0.253 µM): 0.839
- relative viability ([4]; first compound 0.8 µM): 0.896
- relative viability ([4]; first compound 2.53 µM): 0.839
- relative viability ([4]; first compound 8 µM): 0.809

Cell Line: NCI-H1299
- relative viability ([2]; first compound 0.01 µM): 1.03
- relative viability ([2]; first compound 0.1 µM): 1.03
- relative viability ([2]; first compound 0.3162 µM): 1.05
- relative viability ([2]; first compound 1 µM): 1.03

Cell Line: NCI-H1395
- relative viability ([1]; first compound 0.01 µM): 0.719
- relative viability ([1]; first compound 0.1 µM): 0.796
- relative viability ([1]; first compound 0.3162 µM): 0.692
- relative viability ([1]; first compound 1 µM): 0.71
- relative viability ([3]; first compound 0.08 µM): 0.632
- relative viability ([3]; first compound 0.253 µM): 0.734
- relative viability ([3]; first compound 0.8 µM): 0.571
- relative viability ([3]; first compound 2.53 µM): 0.884
- relative viability ([3]; first compound 8 µM): 0.798
- relative viability ([4]; first compound 0.08 µM): 0.471
- relative viability ([4]; first compound 0.253 µM): 0.433
- relative viability ([4]; first compound 0.8 µM): 0.392
- relative viability ([4]; first compound 2.53 µM): 0.441
- relative viability ([4]; first compound 8 µM): 0.463
